In brackets after ≈: the same amount, converted by molar mass.
How the values were obtained:
Type in all cases: functional
[1] = tested on: Mycobacterium tuberculosis
[2] = tested on: Mycobacterium tuberculosis; remark: listed apart in the source
[3] = tested on: Mycobacterium tuberculosis; remark: listed apart in the source

SMILES	MIC50 [1] [µg/mL]	MIC90 [1] [µg/mL]	MIC [2] [µg/mL]	MIC [3] [µg/mL]
O=[N+]([O-])c1cn2c(n1)OC[C@@H](OCc1ccc(OC(F)(F)F)cc1)C2 [PRETOMANID]	0.015 (≈ 0.0418 µM)	0.063 (≈ 0.175 µM)	–	–
COc1nc2ccc(Br)cc2cc1[C@@H](c1ccccc1)[C@@](O)(CCN(C)C)c1cccc2ccccc12 [BEDAQUILINE]	–	–	0.01 (≈ 0.018 µM)	0.03 (≈ 0.054 µM)

— ChEMBL document CHEMBL5331057, “A decade of approved first-in-class small molecule orphan drugs: Achievements, challenges and perspectives” (Eur J Med Chem, 2022)
